Experimental data: US8003105B2, “Method of treating cancer by co-administration of anticancer agents” (Astellas Pharma Inc., priority 2006, dated 2011)

Legend:
[1] = system: human lung carcinoma cell line Calu 6; experiment: Test Example 1: YM155 concomitant with docetaxel, Calu 6 xenograft in nude mice; type: in vivo; conditions: for Number of Complete Regressions: animals with CR / animals in group, during the experimental period to day 35; for Tumor Volume day 0: day 0 (first day of administration); for Tumor Volume day 0 / Body Weight day 35 / Tumor Volume day 35: mean ± SEM, n=8
Procedure: The dose levels are expressed in terms of YM155, the cationic moiety of the drug substance. Docetaxel hydrate (Taxotere® INJECTION) was purchased from Sanofi-Aventis Pharma Ltd. (West Lavel, FRA) and used as docetaxel.
YM155 was dissolved in and diluted with physiological saline in order to prepare dosing solutions (concentrations calculated using the following formulation: dose×mean body weight for each group/daily release volume). These solutions were prepared immediately before the implantation of an osmotic pump (Alzet® model 1007D Micro-Osmotic Pump, DURECT Co., CA, USA) into the test subjects. The solutions were then loaded into the pump. Docetaxel was diluted with physiological saline to prepare 2 mg/mL solutions immediately before administration.
The human lung carcinoma cell line Calu 6 (HTB-56, Lot No. 208280) was obtained from American Type Culture Collection (VA, USA). The cells were cultured at 37° C. in a 5% CO2 atmosphere in RPMI1640 medium supplemented with 10% heat-inactivated fetal bovine serum. The cells were collected with trypsin, suspended in PBS at 6×10^7 cells/mL, and then mixed with an equivalent volume of Matrigel® Basement Membrane Matrix (Becton Dickinson Co., Bedford, Mass., USA).
Five-week-old male nude mice (CAnN.Cg-Foxn1nu/CrlCrlj(nu/nu)) were purchased from Charles River Laboratories Japan, Inc (Kanagawa, Japan). They were maintained on a standard diet and water throughout the experiments under specific pathogen-free conditions. The cells were cultured in vitro and 3×10^6 cells/0.1 mL/mouse were grafted subcutaneously into the flank of 6-week-old nude mice. The mice with tumor volumes (length×width^2×0.5) of 97.3 to 182.7 mm^3 were divided into groups. This was done using SAS software in order to minimize intragroup and intergroup tumor volume variation.
The first day of administration was designated day 0, and observation continued until day 35. Each group (n=8) was treated as follows.
(§1) For 7-day sc continuous infusion, an osmotic pump containing either YM155 or physiological saline, was implanted in the dorsum of each animal while under anesthesia. The vehicle control group received a 7-day sc continuous infusion of physiological saline starting on day 0, and iv bolus injection of physiological saline on days 0, 4 and 8. The YM155 group received a 7-day sc continuous infusion of YM155 at 2 mg/kg/day starting on day 0, and iv bolus injection of physiological saline on days 0, 4 and 8. The docetaxel group received iv bolus injection of docetaxel at 20 mg/10 mL/kg on days 0, 4 and 8, as well as a 7-day sc continuous infusion of physiological saline starting on day 0. The combination group received both compounds instead of the vehicle, similarly to the YM155 and docetaxel groups.
Body weight and tumor diameter were measured every 3-4 days using calipers, and tumor volume was determined by calculating the volume of an ellipsoid using the formula: length×width^2×0.5. Antitumor activities are expressed as percent inhibition of tumor growth (% inh) and percent regression of the tumor (% reg). […] The percent regression of the tumor was calculated for all groups with observed tumor regression, using the following formula: 100×{1−(mean tumor volume of each group on day 35)/(mean tumor volume of each group on day 0)}. The number of Complete Regressions (CRs) in all groups were checked during the experimental period. The CR is defined by instances in which the tumor burden falls bellow the limit of palpation.
Values are expressed as the mean± the standard error of the mean (SEM). Tumor volume and body weight on day 35 were compared between each single compound group and combination group using the Student's t-test. P values of less than 5% are considered significant. SAS software was used for data processing.

[2] = system: human lung carcinoma cell line Calu 6; experiment: Test Example 2A: YM155 followed by docetaxel (sequential), Calu 6 xenograft in nude mice; type: in vivo; conditions: for Number of CRs: animals with complete regression / animals in group; for Tumor Volume day 0 / Body Weight day 35 / Tumor Volume day 35: mean ± SEM, n=8
Procedure: (§2) The following study was conducted in the same way as Test Example 1 except for the administration timing.
A) The first day of administration was designated day 0, and observation continued until day 35. Each group (n=8) was treated as follows.
For 7-day sc continuous infusion, an osmotic pump containing either YM155 or physiological saline, was implanted in the dorsum of each animal while under anesthesia. The vehicle control group received a 7-day sc continuous infusion of physiological saline starting on day 0, and iv bolus injection of physiological saline on days 7, 11 and 15. The YM155 group received a 7-day sc continuous infusion of YM155 at 2 mg/kg/day starting on day 0 and iv bolus injection of physiological saline on days 7, 11 and 15. The docetaxel group received iv bolus injection of docetaxel at 20 mg/10 mL/kg on days 7, 11 and 15, as well as a 7-day sc continuous infusion of physiological saline starting on day 0. The combination group received both compounds instead of the vehicle, similarly to the YM155 and docetaxel groups. Results

[3] = system: human lung carcinoma cell line Calu 6; experiment: Test Example 2B: docetaxel followed by YM155 (sequential), Calu 6 xenograft in nude mice; type: in vivo; conditions: for Number of CRs: animals with complete regression / animals in group; for Tumor Volume day 0 / Body Weight day 35 / Tumor Volume day 35: mean ± SEM, n=8
Procedure: as §2
B) The first day of administration was designated day 0, and observation continued until day 35. Each group (n=8) was treated as follows.
as §1, with “day 8,” for “day 0,”, “day 8.” for “day 0.”, “groups. Results” for “groups.”

[4] = system: human NSCLC xenograft models; conditions: NSCLC xenograft model; Ref. 15; cited from earlier work
[5] = system: lymphoma WSU-DLCL-2 cells; experiment: Test Example 6: YM155 followed by R-ICE, WSU-DLCL-2 xenograft; type: in vivo, nude mice
Procedure: The study was conducted in the same way as Test Example 5 according to the following dosage regimen.
YM155 group YM155 2 mg/kg/day (7-day sc continuous infusion)
RICE group RTX 50 mg/kg, i.v. (day 6 and 8)+(IFM 400 mg/kg+CBDCA 30 mg/kg), i.v (day 9)+ETP 10 mg/kg, i.v (day 8, 9 and 10)
YM155→RICE group YM155 2 mg/kg/day (7-day sc continuous infusion)+RTX 50 mg/kg, i.v. (day 6 and 8)+(IFM 400 mg/kg+CBDCA 30 mg/kg), i.v. (day 9)+ETP 10 mg/kg, i.v. (day 8, 9 and 10)
In the table, values are expressed as the mean±SEM (n=8, RICE group: n=6). ¶¶: P<0.01 versus an RICE group, ##: P<0.01 versus YM155 group, N.S.: no significance from RICE group (Student's t-test).

[6] = day 35, YM155 2 mg/kg/day 7-day sc infusion from day 0, docetaxel 20 mg/kg/day iv day 0, 4, 8
[7] = day 35, YM155 2 mg/kg/day 7-day sc infusion from day 0, docetaxel 20 mg/kg/day iv day 7, 11, 15
[8] = day 35, docetaxel 20 mg/kg/day iv day 0, 4, 8, YM155 2 mg/kg/day 7-day sc infusion from day 8

| Structure (SMILES) | Number of Complete Regressions [1] | Tumor Volume day 0 [1] | Antitumor Activity, percent inhibition of tumor growth (% inh) [1, 6] | Body Weight day 35 [1, 6] | Tumor Volume day 35 [1, 6] | Number of CRs [2] | Tumor Volume day 0 [2] | Body Weight day 35 [2, 7] | Tumor Volume day 35 [2, 7] | Number of CRs [3] | Tumor Volume day 0 [3] | Body Weight day 35 [3, 8] | Tumor Volume day 35 [3, 8] | also measured |
| --- | --- | --- | --- | --- | --- | --- | --- | --- | --- | --- | --- | --- | --- | --- |
| CC(=O)O[C@@]12CO[C@@H]1C[C@H](O)[C@@]1(C)C(=O)[C@H](O)C3=C(C)[C@@H](OC(=O)[C@H](O)[C@@H](NC(=O)OC(C)(C)C)c4ccccc4)C[C@@](O)([C@@H](OC(=O)c4ccccc4)[C@H]21)C3(C)C [Docetaxel, Docetaxel hydrate] | 0/8 | 121.4 ± 7.0 mm^3 | > 100% | 24.95 ± 0.54 ^ g | 58.0 ± 20.4 mm^3 | 0/8 | 209.1 ± 18.3 mm^3 | 21.03 ± 0.94 g | 188.8 ± 29.1 mm^3 | 0/8 | 210.0 ± 22.6 mm^3 | 23.84 ± 1.01 ^ g | 67.2 ± 15.1 mm^3 | Antitumor Activity, percent regression of the tumor (% reg) [1, 6]: 52%; Antitumor Activity, percent inhibition of tumor growth (% inh) [2, 7]: > 100%; Antitumor Activity, percent regression of the tumor (% reg) [2, 7]: 10%; Antitumor Activity, percent inhibition of tumor growth (% inh) [3, 8]: > 100%; Antitumor Activity, percent regression of the tumor (% reg) [3, 8]: 68% |
| COCCn1c2c([n+](Cc3cnccn3)c1C)C(=O)c1ccccc1C2=O.[Br-] [YM155, 1-(2-methoxyethyl)-2-methyl-4,9-dioxo-3-(pyrazin-2-ylmethyl)-4,9-dihydro-1H-naphtho[2,3-d]imidazol-3-ium bromide] | 0/8 | 121.4 ± 6.9 mm^3 | 99% | 26.13 ± 0.56 ^ g | 142.3 ± 16.9 mm^3 | 0/8 | 208.5 ± 18.6 mm^3 | 26.25 ± 0.25 g | 251.8 ± 50.7 mm^3 | 0/8 | 206.9 ± 21.8 mm^3 | 24.80 ± 1.01 ^ g | 1437.5 ± 225.5 mm^3 | anti-tumor activity of 7-day continuous infusion [4]: induced tumor regression; Number of CRs ([5]; animals with complete regression / animals in group): 0/8; Tumor Volume day 0 ([5]; day 0, mean ± SEM, n=8, RICE group n=6): 405.1 ± 13.8 mm^3; Antitumor Activity, percent inhibition of tumor growth (% inh) ([5]; day 28, YM155 2 mg/kg/day 7-day sc infusion, RICE given day 6-10): 45%; Body Weight day 28 ([5]; day 28, YM155 2 mg/kg/day 7-day sc infusion, RICE given day 6-10, mean ± SEM): 28.81 ± 0.23 g; Tumor Volume day 28 ([5]; day 28, YM155 2 mg/kg/day 7-day sc infusion, RICE: RTX 50 mg/kg iv day 6, 8 + IFM 400 mg/kg + CBDCA 30 mg/kg iv day 9 + ETP 10 mg/kg iv day 8-10, mean ± SEM): 1181.3 ± 174.7 mm^3 |
